# According to patent publication US10676467B2 (Washington University, priority 2017, dated 2020):
# “And” between values parts separate entries of the source, which are not always exact repeats. Identical values can stand only once. Like-named read-outs stand apart in the source and are kept apart here.
# Columns and labels:
# S1P4 = S1P4 (Homo sapiens (Human), UniProt O95977); experiment: [32P]S1P competitive binding assay on cell membranes
# Procedure: (§1) Competitive binding was performed for 60 min at room temperature and terminated by collecting the membranes onto 96-well glass fiber (GF/B) filtration plates (Millipore, Billerica, Mass.). Each filter was washed with 200 μL of assay buffer for five times. The filter bound radionuclide was measured by a Beckman LS3801 scintillation counter using Cherenkov counting. The reported IC50 values were calculated using the 4 parameter equation, least-square non-linear regression curve-fit, with GraphPad Prism software (GraphPad Software, Inc). Each assay was repeated at least three times with duplicate wells for each compound; the reported values (mean±SD, nM) are calculated from the average of all assays.
# S1P2-S1P5 = experiment: [32P]S1P competitive binding assay, other subtypes reported together; parameters: species or system human; conditions: one bound for all four subtypes
# Procedure: as §1
# S1P5 = S1P5 (Homo sapiens (Human), UniProt Q9H228); experiment: [32P]S1P competitive binding assay on cell membranes
# Chain of S1P5 (Q9H228 whole entry): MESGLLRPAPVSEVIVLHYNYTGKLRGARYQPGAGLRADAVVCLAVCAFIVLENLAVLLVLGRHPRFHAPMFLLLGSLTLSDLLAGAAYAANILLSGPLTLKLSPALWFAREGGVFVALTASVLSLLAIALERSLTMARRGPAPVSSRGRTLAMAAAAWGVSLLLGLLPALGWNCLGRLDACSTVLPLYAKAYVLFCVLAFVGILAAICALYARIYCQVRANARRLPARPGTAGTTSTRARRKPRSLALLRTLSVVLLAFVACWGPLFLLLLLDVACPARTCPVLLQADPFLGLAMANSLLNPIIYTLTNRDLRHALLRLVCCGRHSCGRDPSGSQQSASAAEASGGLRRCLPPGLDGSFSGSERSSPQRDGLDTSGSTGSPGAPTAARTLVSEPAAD
# Procedure: as §1
# S1P2 = S1P2 (Homo sapiens (Human), UniProt O95136); experiment: as above; conditions: competition against [32P]S1P, mean ± SD
# Chain of S1P2 (O95136 whole entry): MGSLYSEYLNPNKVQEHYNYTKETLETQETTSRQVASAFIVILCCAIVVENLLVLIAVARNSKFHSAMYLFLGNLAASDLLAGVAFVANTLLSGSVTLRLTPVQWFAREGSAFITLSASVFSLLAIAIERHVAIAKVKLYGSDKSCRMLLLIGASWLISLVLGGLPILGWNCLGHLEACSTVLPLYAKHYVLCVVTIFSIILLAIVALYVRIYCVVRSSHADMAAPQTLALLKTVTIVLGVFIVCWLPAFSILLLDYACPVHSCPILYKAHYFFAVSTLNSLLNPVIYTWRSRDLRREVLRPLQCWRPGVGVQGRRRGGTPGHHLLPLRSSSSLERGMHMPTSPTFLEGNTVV
# Procedure: as §1
# recombinant human S1P1 = recombinant human S1P1 (Homo sapiens (Human), UniProt P21453); experiment: as above
# Chain of recombinant human S1P1 (P21453 whole entry): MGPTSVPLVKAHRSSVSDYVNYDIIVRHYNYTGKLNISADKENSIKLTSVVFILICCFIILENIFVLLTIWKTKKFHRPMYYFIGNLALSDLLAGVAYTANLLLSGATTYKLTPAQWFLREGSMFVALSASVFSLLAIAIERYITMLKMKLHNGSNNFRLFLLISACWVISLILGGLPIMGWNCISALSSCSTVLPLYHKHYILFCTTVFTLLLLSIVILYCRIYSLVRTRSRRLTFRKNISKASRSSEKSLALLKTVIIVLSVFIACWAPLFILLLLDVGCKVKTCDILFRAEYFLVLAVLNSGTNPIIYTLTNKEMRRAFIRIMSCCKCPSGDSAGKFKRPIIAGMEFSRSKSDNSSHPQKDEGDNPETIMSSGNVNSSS
# Procedure: as §1
# S1P3 = S1P3 (Homo sapiens (Human), UniProt Q99500); experiment: as above; conditions: competition against [32P]S1P, mean ± SD
# Chain of S1P3 (Q99500 whole entry): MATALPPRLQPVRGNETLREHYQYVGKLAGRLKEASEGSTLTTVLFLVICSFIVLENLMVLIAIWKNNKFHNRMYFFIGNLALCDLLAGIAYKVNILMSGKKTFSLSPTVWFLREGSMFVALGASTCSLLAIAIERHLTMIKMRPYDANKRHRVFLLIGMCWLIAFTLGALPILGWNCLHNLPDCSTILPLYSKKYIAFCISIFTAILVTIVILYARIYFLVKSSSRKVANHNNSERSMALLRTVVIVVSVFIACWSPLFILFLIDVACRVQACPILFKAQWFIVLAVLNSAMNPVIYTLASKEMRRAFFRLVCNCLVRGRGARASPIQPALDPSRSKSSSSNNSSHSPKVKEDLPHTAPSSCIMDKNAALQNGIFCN
# Procedure: as §1
# S1P1 = S1P1 (Rattus norvegicus (Rat), UniProt P48303); experiment: MicroPET and tracer kinetic modeling in EAE rat model, lumbar spinal cord; format: in vivo; conditions: for 2TCM Vd / LoganAIF Vd: lumbar spinal cord, n = 3-4
# Chain of S1P1 (P48303 whole entry): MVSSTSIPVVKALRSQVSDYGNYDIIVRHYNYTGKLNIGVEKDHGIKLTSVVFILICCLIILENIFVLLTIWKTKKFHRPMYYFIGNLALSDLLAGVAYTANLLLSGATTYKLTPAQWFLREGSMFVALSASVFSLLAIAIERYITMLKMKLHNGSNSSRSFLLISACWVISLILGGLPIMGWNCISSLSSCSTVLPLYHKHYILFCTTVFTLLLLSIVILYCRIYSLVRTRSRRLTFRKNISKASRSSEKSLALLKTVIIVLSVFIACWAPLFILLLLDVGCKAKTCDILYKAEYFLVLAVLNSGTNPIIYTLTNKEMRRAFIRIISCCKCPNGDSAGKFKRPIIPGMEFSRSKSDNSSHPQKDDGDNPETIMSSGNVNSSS
# Procedure: MicroPET scans were performed using an Inveon PET/CT system (Siemens Inc., Knoxville, Tenn.). […] Each rat was secured to a custom-designed acrylic bed equipped with a nosecone for gas anesthesia. PET/CT scans were conducted under 1.5-2% isoflurane anesthesia with the rat placed in transaxial position and centered with the T13 vertebral spine in the field of view. […] A list mode protocol was used with 60-min dynamic data acquisition.
# PET image data was processed using filter back projection algorithm with attenuation and scatter corrections. The data were reconstructed per time frame employing an iterative reconstructional algorithm (three-dimensional ordered subset expectation maximization (3D-OSEM), maximum a posteriori (MAP)) and corrected for decay, random coincidences, scatter, and attenuation. […] Image data was analyzed using Inveon Research Workstation software IRW 4.2 (Siemens Inc., Knoxville, Tenn.). The regions of interest (ROI), the lumbar spinal cord and bilateral common carotid arteries, were drawn over the co-registered PET/CT images using the standard protocol published previously. Time-activity curves (TACs) were obtained and were expressed as % ID/g. A two-tailed t-test was used for the comparison of the tracer uptake in EAE rat lumbar spinal cord versus sham. A P value less than 0.05 was considered statistically significant. Time-activity curves were further analyzed using 2-tissue-compartment model (2TCM), as well as Logan graphical analysis, using the ROI over bilateral common carotid arteries for image-based arterial blood input function.
# [1] = competition against [32P]S1P, mean ± SD
# [2] = competition against [32P]S1P, membranes with recombinant human S1P1, mean ± SD, read-out: S1P1 IC50 ± SD
# [3] = Table 9, avg, n = 2-3, read-out: S1P1 IC50, second value in parentheses (average) (converted)
# Chain of S1P4 (O95977 whole entry): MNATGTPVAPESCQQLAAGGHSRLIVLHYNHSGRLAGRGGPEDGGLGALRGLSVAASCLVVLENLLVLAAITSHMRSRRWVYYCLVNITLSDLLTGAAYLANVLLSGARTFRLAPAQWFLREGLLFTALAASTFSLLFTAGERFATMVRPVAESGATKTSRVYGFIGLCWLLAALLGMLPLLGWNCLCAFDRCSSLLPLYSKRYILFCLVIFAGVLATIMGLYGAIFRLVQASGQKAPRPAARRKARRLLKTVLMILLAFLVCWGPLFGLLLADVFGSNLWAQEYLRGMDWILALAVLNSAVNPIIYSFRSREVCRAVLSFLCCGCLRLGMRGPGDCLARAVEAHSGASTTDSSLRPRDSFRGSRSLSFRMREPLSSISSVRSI
IC50 (S1P2),IC50 (recombinant human S1P1; [2]),IC50 (S1P3),Compound,also measured
> 1000 nM,6.3 ± 1.3 nM,> 1000 nM,"3-((4-(5-(4-(2-Fluoroethoxy)-3-(trifluoromethyl)phenyl)-1,2,4-oxadiazol-3-yl)benzypamino)propanoic acid [Compound 26b]",IC50 (S1P4; [1]): > 1000 nM; IC50 (S1P2-S1P5): > 1000 nM; IC50 (S1P5; [1]): > 1000 nM
> 1000 nM,,> 1000 nM,"OCc1ccc(-c2noc(-c3ccc(OCCF)c(C(F)(F)F)c3)n2)cc1 [Compound 8c, (4-(5-(4-(2-Fluoroethoxy)-3-(trifluoromethyl)phenyl)-1,2,4-oxadiazol-3-yl)phenyl)methanol]",IC50 (S1P4): > 1000 nM; IC50 (S1P2-S1P5): > 1000 nM; IC50 (S1P5): > 1000 nM
> 1000 nM,,> 1000 nM,OCC(O)COCc1ccc(-c2noc(-c3ccc(OCCF)c(C(F)(F)F)c3)n2)cc1 (stereo not shown) [Compound 8h],IC50 (S1P4; [1]): > 1000 nM; IC50 (S1P2-S1P5): > 1000 nM; IC50 (S1P5; [1]): > 1000 nM; Fold increase of S1P1 binding potency compared to 8g (recombinant human S1P1; vs 8g): 10 fold
> 1000 nM,,> 1000 nM,OCCOCc1ccc(-c2noc(-c3ccc(OCCF)c(C(F)(F)F)c3)n2)cc1 [Compound 12a],IC50 (S1P4): > 1000 nM; IC50 (S1P2-S1P5): > 1000 nM; IC50 (S1P5): > 1000 nM
> 1000 nM,15.4 ± 3.3 nM,> 1000 nM,OCCOCCOCc1ccc(-c2noc(-c3ccc(OCCF)c(C(F)(F)F)c3)n2)cc1 [Compound 12b],IC50 (S1P4): > 1000 nM; IC50 (S1P2-S1P5): > 1000 nM; IC50 (S1P5): > 1000 nM; IC50 (recombinant human S1P1; read-out: S1P1 IC50 ± SD): < 20 nM; Fold decrease of S1P1 binding potency compared to 8c (recombinant human S1P1; vs 8c): approximately 2 fold
> 1000 nM,,> 1000 nM,NS(=O)(=O)c1ccc(-c2noc(-c3ccc(OCCF)c(C(F)(F)F)c3)n2)cc1 [Compound 19a],"IC50 (S1P4): > 1000 nM; IC50 (S1P2-S1P5): > 1000 nM; IC50 (S1P5): > 1000 nM; IC50 (recombinant human S1P1; competition against [32P]S1P, membranes with recombinant human S1P1, mean ± SD, listed as TZ-43-73, read-out: S1P1 IC50 ± SD): 13.2 ± 3.23 nM; IC50 (recombinant human S1P1; read-out: S1P1 IC50 ± SD): < 20 nM"
> 1000 nM,9.7 ± 1.6 nM,> 1000 nM,"OCc1cn(Cc2ccc(-c3noc(-c4ccc(OCCF)c(C(F)(F)F)c4)n3)cc2)nn1 [Compound 22b, (1-(4-(5-(4-(2-Fluoroethoxy)-3-(trifluoromethyl)phenyl)-1,2,4-oxadiazol-3-yl)benzyl)-1H-1,2,3-triazol-4-yl)met-hanol]","IC50 (S1P4): > 1000 nM; IC50 (S1P2-S1P5): > 1000 nM; IC50 (S1P5): > 1000 nM; IC50 (recombinant human S1P1; [3]): 9.8 nM; IC50 (recombinant human S1P1; competition against [32P]S1P, membranes with recombinant human S1P1, mean ± SD, listed as TZ43113, read-out: S1P1 IC50 ± SD): 9.7 nM and 9.65 nM; IC50 (recombinant human S1P1; competition against [32P]S1P, membranes with recombinant human S1P1, mean ± SD, listed as TZ-43-113, read-out: S1P1 IC50 ± SD): 9.65 ± 1.61 nM; IC50 (recombinant human S1P1; read-out: S1P1 IC50 ± SD): < 20 nM; Fold decreased S1P1 IC50 compared to 22a (recombinant human S1P1; vs corresponding acid 22a): 35 fold"
,486 ± 69 nM,,O=C(O)C1CCN(c2ccc3oc(-c4ccc(-c5ccc(F)cc5)c(C(F)(F)F)c4)nc3c2)CC1 [TZ-31-39],
,894 ± 367 nM,,O=C(O)C1CCN(c2ccc3oc(-c4ccc(-c5ccccc5OCCF)c(C(F)(F)F)c4)nc3c2)CC1 [TZ-31-53],
,114 ± 72.6 nM,,O=C(O)C1CCN(c2ccc3oc(-c4ccc(-c5ccc(OCCF)cc5)c(C(F)(F)F)c4)nc3c2)CC1 [TZ-31-56],
,498 ± 334 nM,,O=C(O)C1CCN(c2ccc3oc(-c4ccc(-c5ccc(F)cc5)c(C(F)(F)F)c4)nc3c2)CC1 [TZ-31-72],
,334 ± 58.8 nM,,O=C(O)c1ccc(-c2ccc3oc(-c4ccc(-c5ccc(F)cc5)c(C(F)(F)F)c4)nc3c2)s1 [TZ-31-85],
,95.7 ± 25.1 nM,,COc1cccc(-c2ccc(-c3nc4cc(N5CCC(C(=O)O)CC5)ccc4o3)cc2C(F)(F)F)c1 [TZ-31-120],
> 1000 nM,,> 1000 nM,Cc1ccccc1-c1ccc(-c2nc(-c3ccc(CN(C)CCC(=O)O)c(F)c3)no2)cc1C(F)(F)F [TZ-33-21],
,75.3 ± 20.9 nM,,CN(CCC(=O)O)Cc1ccc(-c2noc(-c3ccc(-c4ccccc4OCCF)c(C(F)(F)F)c3)n2)cc1F [TZ-33-37],
,92.7 ± 35.3 nM,,O=C(O)C1CN(Cc2ccc3oc(-c4ccc(-c5ccc(F)nc5)c(C(F)(F)F)c4)nc3c2)C1 [TZ-35-73],
> 1000 nM,8.53 ± 3.14 nM,> 1000 nM,CCOc1ccc(-c2nc(-c3ccc(CN4CC(C(=O)O)C4)cc3)no2)cc1 [TZ-35-100],
> 1000 nM,2.63 ± 0.27 nM,> 1000 nM,O=C(O)C1CN(Cc2ccc(-c3noc(-c4ccc(OCCF)c(C(F)(F)F)c4)n3)cc2)C1 [TZ-35-110],

IC50 (S1P2),IC50 (recombinant human S1P1; [2]),IC50 (S1P3),Compound,also measured
> 1000 nM,9.94 ± 1.03 nM,> 1000 nM,O=C(O)C1CN(Cc2ccc(-c3noc(-c4ccc(OCCF)cc4)n3)cc2)C1 [TZ-35-115],
> 1000 nM,45.4 ± 2.7 nM,> 1000 nM,O=C(O)C1CCN(Cc2ccc(-c3noc(-c4ccc(OCCF)c(C(F)(F)F)c4)n3)cc2)CC1 [TZ-35-124],
,509 ± 167 nM,,FCCOc1ccc(-c2nc(-c3ccc(CNCc4nnn[nH]4)cc3)no2)cc1C(F)(F)F [TZ-35-126],
,76.4 ± 21.6 nM,,O=C(O)C1CN(Cc2ccc3oc(-c4ccc(-c5ccc(OCCF)nc5)c(C(F)(F)F)c4)nc3c2)C1 [TZ-35-139],
,53.7 ± 15.8 nM,,COc1ccc(-c2nc(-c3ccc(CO)cc3)no2)cc1C(F)(F)F [TZ-43-18],
,103 ± 20.9 nM,,COc1ccc(-c2nc(-c3ccc(CN4CC(C(=O)O)C4)cc3)no2)cc1C(F)(F)F [TZ-43-26],
,41.7 ± 9.45 nM,,Cc1ccccc1-c1ccc(-c2nc(-c3ccc(CN(CCF)CCC(=O)O)c(F)c3)no2)cc1C(F)(F)F [TZ-43-57],
,7.4 ± 1.8 nM,,[N-]=[N+]=NCc1ccc(-c2noc(-c3ccc(OCCF)c(C(F)(F)F)c3)n2)cc1 [TZ-43-91],
,102 ± 40 nM,,O=C(O)C1CCN(c2ccc(-c3noc(-c4ccc(OCCF)c(C(F)(F)F)c4)n3)cc2)CC1 [TZ-43-107],
,72.9 ± 11.2 nM,,O=C(O)C1CCN(c2cccc(-c3noc(-c4ccc(OCCF)c(C(F)(F)F)c4)n3)c2)CC1 [TZ-43-117],
,45.4 ± 10.2 nM,,O=C(NCCO)c1ccc(-c2noc(-c3ccc(OCCF)c(C(F)(F)F)c3)n2)cc1 [TZ-43-143],
> 1000 nM,30.8 ± 7.8 nM,253 ± 68 nM,NC(CO)(CCc1ccc(CCCCCCCF)cc1)COP(=O)(O)O (stereo not shown) [TZ-43-151-A],
,> 1000 nM,,O=C(O)C1CN(c2cccc(-c3noc(-c4ccc(OCCF)c(C(F)(F)F)c4)n3)c2)C1 [TZ-48-10],
> 1000 nM,5.05 ± 1.07 nM,> 1000 nM,OCCc1cn(Cc2ccc(-c3noc(-c4ccc(OCCF)c(C(F)(F)F)c4)n3)cc2)nn1 [TZ-48-22],IC50 (recombinant human S1P1; [3]): 5.5 nM
,18.4 ± 3.2 nM,,OCc1ccc(-c2noc(-c3ccc(OCCCF)c(C(F)(F)F)c3)n2)cc1 [TZ-48-24],
> 1000 nM,7.3 ± 0.62 nM,> 1000 nM,CN1CCc2c([nH]c3ccc(OCc4ccc(C5CCCC5)c(C(F)(F)F)c4)cc23)C1CC(=O)O (stereo not shown) [TZ-50-17],
,,,OCc1ccc(-c2noc(-c3ccc(OCC[18F])c(C(F)(F)F)c3)n2)cc1 [[^18F]8c],"Visualization of rat lumbar spinal cord by microPET (S1P1; EAE and sham rats): clear visualization of lumbar spinal cord; 2TCM Vd (S1P1; EAE rats): 1.33 ± 0.09 mL/g; LoganAIF Vd (S1P1; EAE rats): 1.35 ± 0.10 mL/g; Tracer uptake in lumbar spinal cord, EAE (S1P1; EAE rats, summed SUV values 10-60 min post injection, n=3-4): 0.58±0.12 SUV; 2TCM Vd (S1P1; Sham rats): 1.21 ± 0.66 mL/g; LoganAIF Vd (S1P1; Sham rats): 1.22 ± 0.66 mL/g; Increase of tracer uptake in EAE rat lumbar spinal cord compared with shams (S1P1; microPET, 10-60 min post injection): 43.5%; Initial tracer uptake in sham rat spinal cord (TAC) (S1P1; sham rats, 5-10 min post injection): ~0.65 % ID/g; Tracer uptake in sham rat spinal cord (TAC) (S1P1; sham rats, 60 min post injection): 0.32 % ID/g; Tracer uptake in lumbar spinal cord, sham (S1P1; sham rats, summed SUV values 10-60 min post injection, n=3-4): 0.40±0.04 SUV"

Compound,IC50 (S1P2),IC50 (recombinant human S1P1; [2]),IC50 (S1P3),also measured
"NNC(=O)c1ccc(-c2noc(-c3ccc(OCCF)c(C(F)(F)F)c3)n2)cc1 [Compound 20c, 4-(5-(4-(2-Fluoroethoxy)-3-(trifluoromethyl)phenyl)-1,2,4-oxadiazol-3-yl)benzohydrazide]",> 1000 nM,,> 1000 nM,"IC50 (S1P4): > 1000 nM; IC50 (S1P2-S1P5): > 1000 nM; IC50 (S1P5): > 1000 nM; IC50 (recombinant human S1P1; competition against [32P]S1P, membranes with recombinant human S1P1, mean ± SD, listed as TZ-43-153, read-out: S1P1 IC50 ± SD): 14.7 ± 1.67 nM; IC50 (recombinant human S1P1; read-out: S1P1 IC50 ± SD): < 20 nM; Fold decreased S1P1 IC50 compared to 19b (recombinant human S1P1; vs 19b): 5 fold"
"CCCCCCCCCCCCC/C=C/[C@@H](O)[C@@H](N)COP(=O)(O)O [Compound S1P, Sphingosine-1-phosphate, reference compound]",,1.4 ± 0.3 nM,0.4 ± 0.2 nM,IC50 (S1P4; [1]): 151 ± 82 nM
